Conditions: for log10 BCF / log10 biotransformation half-life (days): fish

| Compound | boiling point [°C] | melting point [°C] | other results |
| --- | --- | --- | --- |
| CCSC(=O)SCC | 197 |  |  |
| O=C(O)c1ccc(O)cc1 |  | 214 | log10 Koa: 8.08; log10 Koc (L/kg): 1.43; log10 vapour pressure (mmHg): -6.72; ready biodegradability: readily biodegradable |
| Cn1c(=O)cc[nH]c1=O |  |  | log10 vapour pressure (mmHg): -3.15 |
| CCC(Br)=CBr | 150 | -49.5 |  |
| CC(C)(C)I | 100 | -38.2 |  |
| C[N+]1([O-])[C@@H]2C[C@@H](OC(=O)[C@H](CO)c3ccccc3)C[C@H]1[C@@H]1O[C@@H]12 (stereo partly specified) |  | 80 |  |
| Nc1ccc2ccccc2c1N=Nc1ccccc1 |  | 103 |  |
| CCN(CC)CC(=O)Nc1c(C)cc(C)cc1C |  | 44 |  |
| O=C=Nc1cccc(N=C=O)c1 |  | 50 |  |
| NC(=O)c1ccc(C(F)(F)F)cc1 |  | 185 |  |
| CCCCCN | 104 | -55 | log10 Henry constant (atm·m³/mol): -4.61; log10 vapour pressure (mmHg): 1.48; ready biodegradability: readily biodegradable |
| CC[C@H]1C[C@@H]2C[C@H]3c4[nH]c5cc(OC)ccc5c4CC[N@@](C2)[C@@H]13 |  | 214 |  |
| CCCC#N | 118 | -112 | log10 Henry constant (atm·m³/mol): -4.28; log10 Koa: 3.12; log10 vapour pressure (mmHg): 1.29 |
| CC(C)Cc1ccccc1 |  |  | log10 biodegradation half-life (days): 1 |
| CCCCCCN(C)C(=O)COC(=O)c1ccccc1 |  | 100 |  |
| CC(C)(C)CCl | 84.3 | -20 |  |
| CCc1cnccc1C | 198 |  |  |
| CC1(N)CCCC1 | 121 |  |  |
| CCCCCCCOC=O | 178 |  |  |
| CCCC(C)(COC(N)=O)COC(N)=O |  | 105 |  |
| CCCC=CCC=O | 151 |  |  |
| O=C(O)CONC(=O)c1ccccc1 |  | 140 |  |
| Clc1c(Cl)c(Cl)c2c(c1Cl)Oc1c(Cl)c(Cl)c(Cl)c(Cl)c1O2 | 510 | 330 | log10 Koa: 12.1; log10 vapour pressure (mmHg): -12.1; log10 BCF: 3.12; log10 biotransformation half-life (days): 1.16 |

| Compound | boiling point [°C] | melting point [°C] | other results |
| --- | --- | --- | --- |
| Brc1cccs1 | 150 |  | log10 vapour pressure (mmHg): 1.37 |
| CC(C)CC(C)(C)O | 133 |  |  |
| CN(C)[C@@H]1C(O)=C(C(N)=O)C(=O)[C@@]2(O)C(O)=C3C(=O)c4c(O)cccc4[C@@](C)(O)[C@H]3[C@H](O)[C@@H]12 |  | 184 |  |
| CCCCCCCCON=O | 174 |  |  |
| CCCCCC(N)=O | 255 | 101 |  |
| CCOC(=O)C1=C(C)NC(C)=C(C(=O)OCC)C1 |  | 180 |  |
| CC[B]CC | 112 | -56.3 |  |
| CCCCSSCCCC |  |  | log10 vapour pressure (mmHg): -1.2 |
| CCC(C(=O)O)C1(O)CCCCC1 (stereo unspecified) |  | 81.5 |  |
| CC(C)CCI | 147 |  |  |
| O=C(O)Cc1cccc(O)c1 |  | 132 |  |
| O=C(O)c1cccc(Br)c1 |  | 155 | log10 vapour pressure (mmHg): -4.04 |
| Cc1cc(O)c(C(C)C)cc1Cl | 258 | 63 |  |
| Clc1ccc(C2(Cn3cncn3)CC(Br)CO2)c(Cl)c1 (stereo unspecified) |  | 84 | log10 vapour pressure (mmHg): -7.52 |
| O=[N+]([O-])c1ccc(-c2ccccc2[N+](=O)[O-])cc1 |  | 93.5 |  |
| CCCCC(C)(C)CCC | 158 |  |  |
| C=C(CCl)CCl | 138 | -14 |  |
| C=CC(F)(F)C(F)(F)C(F)(F)C(F)(F)C(F)(F)C(F)(F)F | 104 |  |  |
| O=C(c1ccc(O)cc1O)c1ccc(O)cc1O |  | 202 |  |
| CC1(C)[C@H](C=C(Cl)Cl)[C@H]1C(=O)OCc1c(F)c(F)cc(F)c1F |  | 32 | log10 vapour pressure (mmHg): -5.52 |
| Clc1cc(Cl)c(-c2c(Cl)c(Cl)cc(Cl)c2Cl)cc1Cl |  |  | log10 Koa: 9.87; log10 biotransformation half-life (days): 2.45 |
| CC[C@@H](CO)NCCN[C@@H](CC)CO |  | 89 |  |
| COC(C)C | 30.7 |  | log10 vapour pressure (mmHg): 2.78 |

| Compound | boiling point [°C] | melting point [°C] | other results |
| --- | --- | --- | --- |
| C[C@@H](O)C(C)(C)O | 175 |  |  |
| COC(=O)c1ccc(Br)cc1 |  | 81 |  |
| CSCC(C)C | 112 |  |  |
| O=C(O)c1ccc[nH]1 |  |  | log10 vapour pressure (mmHg): -5.65 |
| CC(=O)O.CCCCCCCCCCCCCCCCCC1=NCCN1 |  | 65 |  |
| COc1ccc(C(=O)CCC(=O)O)cc1 |  | 149 |  |
| CCc1ccco1 | 92 |  |  |
| Clc1cc2c(oc3c(Cl)c(Cl)c(Cl)cc32)c(Cl)c1Cl |  | 240 | log10 Koa: 10.9; log10 BCF: 3.98; log10 biotransformation half-life (days): 1.12 |
| COCC(=O)N(c1c(C)cccc1C)N1CCOC1=O |  | 104 | log10 vapour pressure (mmHg): -7.61 |
| CC(=O)OCCCCl | 164 |  |  |
| CCCCCC(C)CCCC(C)C (stereo unspecified) |  |  | log10 biotransformation half-life (days): 1.02 |
| CC(=O)c1cccc(C)c1 | 220 |  |  |
| CC=CC=CC=CC=O |  | 56.8 |  |
| O=C1CCCCCCCCC1=O |  | 40.5 |  |
| OC(Cn1cncn1)(c1ccc(F)cc1)c1ccccc1F (stereo unspecified) |  | 130 | log10 Koc (L/kg): 1.88; log10 vapour pressure (mmHg): -10.3 |
| Fc1cccc(F)c1-c1nnc(-c2ccccc2Cl)nn1 |  | 188 |  |
| O=C1COc2ccccc21 |  | 102 |  |
| C=CC(C)C(C)CC (stereo unspecified) | 112 |  |  |
| C1=NN(c2ccccc2)CC1 | 273 | 52 |  |
| O=C1CCc2ccccc2C1 | 237 | 18 |  |
| CN1CCN(C)C1=O | 221 | 8.2 |  |
